Results on 1 molecule are retold here after patent US20180193327A1, “PROPHYLACTIC LEUKOTRIENE INHIBITOR AND IMPLANT DISPLACEMENT THERAPY FOR PREVENTION AND TREATMENT OF CAPSULAR CONTRACTURE IN SILICONE BREAST AUGMENTATION” (priority 2017, published 2018).

Common to all, as to type: in vivo
The test system of data set [1] is capsular contracture in patients undergoing capsulectomy and silicone implant replacement. In words: Recurrence of capsular contracture (Baker scale) at one year after capsulectomy and silicone implant replacement. On the procedure: The study was performed with patients undergoing primary capsulectomy and silicone implant replacement for grade III and IV capsular contracture according to the methods depicted in FIGS. 3 and 4 of the present disclosure. […] Patients with a history of subglandular breast augmentation or those who underwent concurrent mastopexy revision or replacement with textured silicone breast implants were not included in the study. Enrolled patients underwent surgery with either an inframammary or periareolar incision.
One group of patients underwent capsulectomy and implant replacement without the use of leukotriene inhibitors. Another group of patients agreed to the off-label use of zafirlukast (Accolate; AstraZeneca Pharmaceuticals, Wilmington, Del.) and were treated beginning the day following the capsulectomy and implant replacement procedure. All patients were between the ages of 22 and 60 years of age and consented to the use of Mentor Memory Gel silicone gel breast implants with a smooth surface (Mentor Worldwide, Irvine, Calif.) and the off-label use of triple-antibiotic irrigation containing povidone-iodine (Betadine; Purdue Frederick Co., Norwalk, Conn.). In addition, a detailed informed consent was provided for the off-label use of Accolate. All patients were adequately informed of the risks, potential unknown benefits, cost, and potential side effects of leukotriene therapy with both verbal and written consent. Patients were informed that taking Accolate was voluntary and that they could discontinue this medication at any time for any reason.
Patients undergoing capsulectory and re-augmentation were treated with the incision initially used by the original surgeon, with either an inframmary or periareolar approach. All patients were surgically treated with complete periprosthetic capsulectomy. Patients were also treated with preoperative intravenous antibiotics, either a 1-g dose of cephazolin or 600 mg of clindamycin, selected based on allergy profiles. Before insertion of implants, triple-antibiotic irrigation [50,000 U of bacitracin, 1 g of Ancef (GlaxoSmithKline, Middlesex, United Kingdom), and 80 mg of gentamicin] with the addition of 50 ml of povidone-iodine in 500 ml of normal saline was used.
Hemovac ⅛ inch drains (Medline Industries, Rialto, Calif.) were used on all breasts receiving capsulectomy. All implants were placed with powder-free glove changes and inserted through a skin barrier/nipple shield using Tegaderm (3M, St. Paul, Minn.) dressings. Drains were left in place until drainage from one breast reached 30 ml/24 hrs, or 60 ml/24 hrs if both breasts were treated. The implant displacement therapy protocol was initiated two days after drains were removed.
(§1) Patients were treated with Accolate 20 mg twice daily, beginning the day after surgery. Patients with a history of hepatitis or liver disease were excluded. Patient compliance with the recommended dosage was encouraged, but patients were advised that they could discontinue the medication at any time that they experienced significant side effects. All patients receiving Accolate therapy underwent liver function studies 4 weeks after the initiation of Accolate therapy. […] Follow-up liver function studies were performed at 2-week intervals, until transaminases normalized. […] Liver function studies were repeated after 3 months of Accolate therapy for patients choosing to continue Accolate for a 6-month course.
All patients were evaluated at frequent follow-up appointments, including early postoperative visits, 1 month, 3 months, 6 months, and 1 year postoperatively. Capsular contracture was evaluated by the Baker scale. Patients with grade III or IV capsular contractures were considered as having clinical capsular contracture. Each patient was considered based on the number of their breasts associated with clinical capsular contracture ranging from none to two breasts. […]

Data set [2] in a line: Liver function studies (transaminases) during Accolate therapy after capsulectomy and implant replacement. Conditions: at one month postoperatively; group of 279 patients, 20 mg twice daily. On the procedure:
as §1

The nature of data set [3]: Voluntary discontinuation of Accolate after capsulectomy and implant replacement. Conditions: group of 279 patients. As to the method: as §1
A total of 447 consecutive patients were evaluated during the study period. A first group of 168 consecutive patients with encapsulated breast implants were studied and no leukotriene inhibitor therapy was offered postoperatively. This included 55 patients with bilateral capsular contracture. […] A second group of 279 consecutive patients with encapsulated breast implants were studied and treated with Accolate, including 87 patients with bilateral capsular contracture. There were 366 breasts with capsular contracture among patients in this group. […] Twelve patients discontinued the use of Accolate voluntarily based on cost or minor side effects and were excluded from the study.

[4] abbreviates: preoperative Grade III (172 breasts).
[5] abbreviates: preoperative Grade IV (194 breasts).
[6] abbreviates: preoperative Total III/IV (366 breasts).

For `COc1cc(C(=O)NS(=O)(=O)c2ccccc2C)ccc1Cc1cn(C)c2ccc(NC(=O)OC3CCCC3)cc12` [Accolate, Zafirlukast], in data set [1] (setting [4]), the “Number of breasts with capsular contracture, postoperative Grade III” value (from here on “Number of breasts … postoperative Grade III”) was determined as 7; the “Number of breasts with capsular contracture, postoperative Grade IV” value (from here on “Number of breasts … postoperative Grade IV”) is reported as 2; the “Number of breasts with capsular contracture, postoperative Total” value (“Number of breasts … postoperative Total” for short) is 9; the “Percent of breasts with capsular contracture, postoperative Grade III” value (from here on “Percent of breasts … postoperative Grade III”) was found to be 4.1%. In addition, in data set [1] (setting [4]), the “Percent of breasts with capsular contracture, postoperative Grade IV” value (shortened to “Percent of breasts … postoperative Grade IV”) came out at 1.2% and the “Percent of breasts with capsular contracture, postoperative Total” value (shortened to “Percent of breasts … postoperative Total”) came out at 5.3%. For the same molecule, in data set [1] (setting [5]), the “Number of breasts … postoperative Grade III” value worked out at 15; the “Number of breasts … postoperative Grade IV” value is given as 5; the “Number of breasts … postoperative Total” value came to 20; the “Percent of breasts … postoperative Grade III” value was found to be 7.8%. In addition, in data set [1] (setting [5]), the “Percent of breasts … postoperative Grade IV” value is recorded as 2.6% and the “Percent of breasts … postoperative Total” value is recorded as 10.3%. For the same molecule, in data set [1] (setting [6]), the “Number of breasts … postoperative Grade III” value is 22; the “Number of breasts … postoperative Grade IV” value was 7; the “Number of breasts … postoperative Total” value is 29; the “Percent of breasts … postoperative Grade III” value is given as 6.0%. For the same molecule, in data set [1] (setting [6]), the “Percent of breasts … postoperative Grade IV” value is reported as 1.9% and the “Percent of breasts … postoperative Total” value stood at 7.9%. In data set [2], the “Number of patients with (mild) elevation of transaminases” value is on record as “Two”. The “Number of patients who discontinued voluntarily based on cost or minor side effects” value in data set [3] is “Twelve”.
